Here are results for 5 molecules from US11207419B2, “Cadherin-17 specific antibodies and cytotoxic cells for cancer treatment” (ARBELE LIMITED, priority 2016, dated 2021).

For assay [1], the system named is PLC/PRF/5 (PLC) cells. The experiment in a line: In vitro cell proliferation MTT assay, PLC cells. Format: cell-based, human. Conditions: for growth inhibition: cultured PLC cells, treatment for 2 days, MTT. As for the experimental part:
(§1) A pre-determined number of 97L and PLC cells was seeded onto 96-well culture plates for 1 day. 150 ug/ml mouse IgG (Sigma-Aldrich, St Louis, Mo., USA) as a control for Lic5. After treatment, the proliferation of treated cells was measured using Cell Proliferation Kit I (Roche, Indianapolis, Ind., USA) and as described. In brief, MTT reagent was incubated with the treated cells for 4 hours. Colorimetric signals were then measured after addition of 10% SDS. Independent cell proliferation MTT assays were performed at least twice for result confirmation.
(§2) Before treating orthotopic tumor-bearing mice with the purified Lic5, the anti-tumor effect of Lic5 alone or combined with cisplatin or epirubicin in cultured HCC cell lines in vitro was examined using cell proliferation MTT assay (FIG. 31(A)).

In assay [2] the test system is 97L orthotopic liver tumors. The assay can be described thus: Animal survival study, orthotopic liver tumors. The note with it: for animal survival rate: 8 mg/kg Lic5, 1 mg/kg epirubicin, intraperitoneal 3 times/week for 3 weeks, monitored till 6 weeks after treatment. Format: in vivo, nude mice. As for the experimental part: Orthotopic liver tumors were established as above using 97L cells. Orthotopic tumor-bearing mice received the following treatments intraperitoneally 3 times/week for 3 weeks (11-15 mice in each group): (1) 8 mg/kg Lic5; (2) 1 mg/kg cisplatin; (3) 1 mg/kg epirubicin; (4) combined treatment of Lic5 and cisplatin; (5) combined treatment of Lic5 and epirubicin; (6) 8 mg/kg mouse IgG as Lic5 control. Animal survival was continuously monitored till 6 weeks after treatment.
Statistical analyses were performed using SPSS version 19 (SPSS Inc., Chicago, Ill., USA). Data presented in bar chart are expressed as mean ±SD/SEM. Student's t-test was used to calculate the significance of the difference between treatment groups and control group in both cell proliferation MTT assay and animal tumor xenograft experiments. Kaplan-Meier method was employed for survival analyses, while the differences in survival were calculated using log-rank test. A p-value of less than 0.05 was considered statistically significant.

In assay [3] the test system is MHCC97-L (97L) cells. The experiment in a line: In vitro cell proliferation MTT assay, 97L cells. The format is cell-based, human. The note with it: cultured 97L cells; for growth inhibition: treatment for 2 days, MTT. As for the experimental part: as §1, §2
The subject of assay [4] is luciferase-labelled 97L orthotopic liver tumors. The experiment in a line: Orthotopic tumor xenograft model, tumor growth by live imaging. Format: in vivo, nude mice. Conditions: net photon count relative to IgG control 3 weeks after treatment; 6 mg/kg Lic5, 1 mg/kg drug, intraperitoneal 3 times/week for 3 weeks.
Protocol: Animals were housed in individually ventilated cages under a 12-hour light/12-hour dark cycle and with free access to autoclaved water and chow. […] To allow in vivo viewing of the growing orthotopic liver tumors, previously established luciferase-labelled 97L cell line was used. 5×10^6 luciferase-labeled 97L cells were injected subcutaneously into nude mice to allow the growth of the subcutaneous tumors. These subcutaneous tumors were harvested when their sizes reached 200-300 mm3 and used as tumor seeds to establish orthotopic liver tumors in a separate group of nude mice following the standard procedure. […] Every week after treatment, orthotopic tumor growth and metastasis were monitored by live imaging in an IVIS 100 In Vivo Imaging System (Perkin Elmer, Waltham, Mass., USA) after intraperitoneal injection of 150 mg/kg potassium luciferin (Gold Biotechnology, St Louis, Mo., USA). For each measurement, a net photon count was obtained for each tumor. At the end of the experiment, orthotopic tumors were collected and subjected to formalin fixation and paraffin embedding.
The data shown are net photon count relative to the control IgG group obtained 3 weeks after treatment. […] Bars represent mean+SEM.
The target in assay [5] is T1, GPC3 (Homo sapiens, UniProt P51654).
T1 construct: host or cells: HCC patients
Conditions: phase I study; cited from earlier work.

The target of assay [6] is T2, CDH17 (Homo sapiens, UniProt Q12864).
T2 construct: A single band of about 120 kDa corresponding to the apparent molecular weight of CDH17 was detected in CDH17-expressing 97L cells; endogenous in cells; host or cells: 97L cell lysate (western blot); paraffin-embedded human HCC tissue (immunohistochemistry)
The experiment in a line: Immunoreactivity by western blot and immunohistochemistry. The format is binding. The note with it: western blot on 97L cell lysate, immunohistochemistry on human HCC tissue. As for the experimental part: An in-house hybridoma cell line secreting Lic5 was generated as described. Hybridoma cells were maintained in DMEM supplemented with 10% FBS and 100 units/ml penicillin and streptomycin. To collect Lic5, hybridoma cells were cultured in serum-free hybridoma-SFM (Life Technologies) for 6 days. The cultured supernatant was collected and purified using Protein G column (Life Technologies). The concentration of the purified Lic5 was estimated using RC DC Protein Assay (Bio-Rad, Hercules, Calif., USA). The purity of Lic5 was assessed by sodium dodecyl sulfate-polyacrylamide gel electrophoresis (SDS-PAGE) under reducing condition, followed by Coomassie Blue staining. Immunoreactivity and specificity of Lic5 were confirmed by western blot using 97L cell lysate and by immunohistochemistry using paraffin-embedded human HCC tissue. […]
Immunohistochemistry was performed on paraffin-embedded orthotopic tumor xenografts and human HCC specimen as described. […] Signals were detected using EnVision+System-HRP Labelled Polymer Anti-mouse (Dako, Carpinteria, Calif., USA) and visualized using Liquid DAB+Substrate Chromogen System (Dako). […]
A single band of about 120 kDa corresponding to the apparent molecular weight of CDH17 was detected in CDH17-expressing 97L cells when Lic5 was used as a primary antibody for western blot (FIG. 30(B)). […]

The test system of assay [7] is tumor cells of HCC and GC. The experiment in a line: Binding of mAbs to tumor cells. Format: cell-based. The source says: Tumor antigens derived from clinical samples were selected for the antibodies with specificity directed against the tumor-restricted CDH17 epitopes. […] By lowering and/or varying the antibody affinity (through computational modeling), CDH17-CAR-T cells will have enhanced differential binding to the tumor cell surface.

For assay [8], the system named is Oum1 human gastric cancer cells. The experiment in a line: Internalization by confocal microscopy. The format is cell-based. The note with it: Lic5-FITC, over 30 mins at 37° C. As for the experimental part:
FIG. 18 presents photographs showing the internalization of Lic5 into human gastric cancer cells as candidate for antibody drug conjugate; (a) photographs showing the staining of DAPI (blue) and Lic5-FITC (green) at indicated times; (b) photographs showing the merged staining of DAPI (blue) and Lic5-FITC (green) at indicated times; Lic5-FITC (green) internalization in Oum1 human gastric cancer cells over 30 mins at 37° C. was determined by confocal microscopy; nucleus was stained with DAPI.
In another aspect, the internalization of Lic5 into human gastric cancer cells is indicative of a candidate for antibody drug conjugate as shown in FIG. 18; (a) photographs showing the staining of DAPI (blue) and Lic5-FITC (green) at indicated times; (b) photographs showing the merged staining of DAPI (blue) and Lic5-FITC (green) at indicated times; Lic5-FITC (green) internalization in Oum1 human gastric cancer cells over 30 mins at 37° C. was determined by confocal microscopy; nucleus was stained with DAPI.

Where [9] appears, read: 2 days, compared to mouse IgG-treated cells.

As for `COc1cccc2c1C(=O)c1c(O)c3c(c(O)c1C2=O)C[C@@](O)(C(=O)CO)C[C@@H]3O[C@H]1C[C@H](N)[C@@H](O)[C@H](C)O1` [epirubicin], the results for the growth inhibition in assay [1] and in assay [3] were 8.1% and 21.9%, respectively. Moreover, in assay [2], the animal survival rate was 25%. In assay [4], this molecule registered a xenograft growth inhibition of 37.9%.

On to GC33: anti-GPC3 mAb developed by Chugai, for which, in assay [5], the clinical response entry is given as “no partial or complete response”.

For the molecule `N.N.[Cl][Pt][Cl]` [cisplatin], the growth inhibition in assay [1] is listed as 37.6%; in assay [3], 31.6%. Further, in assay [2] (log-rank test versus mouse IgG control), the “difference in survival compared to control group” value is listed as “did not reach any statistically significant values”. In assay [4], the xenograft growth inhibition is listed as 48.6%.

B1: Lic5: in-house mouse monoclonal antibody against CDH17, from hybridoma; VL SEQ ID NO. 29, VH SEQ ID NO. 30 (antibody, V domains shown)
VH: EVQLEESGGGLVKPGGSLKLPCAASGSSFSDFYMYWVRQTPEKRLEWVASISFDGTYTYYTDRVKGRFTISRDNAKNNLYLQMSSLKSEDTAMYYCARDRPAWFPYWGQGTLVTVSAA
VL: DIVLTQTTLSLNVSLGDQASISCRSSQSIVHSNGNTYLEWYLQRPGQSPKLLIYKVSNRFSGVPDRFSGSGSGTDFTLKISRVEAEDLGVYYCFQGSHVPLTFGAGTKLELKRA
notes: in-house mouse monoclonal antibody against CDH17, from hybridoma; 30
Turning to B1, the “growth of cultured cells, single treatment” value in assay [1] (setting [9]) and in assay [3] (setting [9]) was “inhibited the growth” throughout. The “immunoreactivity against CDH17” value in assay [6] is “high immunoreactivity against CDH17”. Further, the animal survival rate in assay [2] was 63.6%. The “binding to tumor cells” value in assay [7] was “bind tumor cells of HCC and GC only”. Further, the internalization into cells entry in assay [8] is “internalization”.

B2: Lic3: mouse monoclonal antibody against CDH17, produced using recombinant ectodomain 1-2 of CDH17 as immunogen (antibody, V domains shown)
VH: EVQLVESGGGLVKPGGSLKLSCAASGFSFSDYYMYWVRQAPEKRLEWVASISFDGTYTYYTDRVKGRFTISRDNAKNNLYLQMSSLKSEDTAMYYCARDRPAWFPYWGQGTLVTVSA
VL: DVLMTQIPLSLTVSLGDQASISCRSSQSIVHSNGNTYLEWYLQRPGQSPKLLIYKVSNRFSGVPDRFSGSGSGTDFTLKISRVEAEDLGVYYCFQGSHVPLTFGAGTKLELK
modifications: Lic3 VH; Lic3 VL
notes: mouse monoclonal antibody against CDH17, produced using recombinant ectodomain 1-2 of CDH17 as immunogen
B2: the “binding to tumor cells” value in assay [7] is “bind tumor cells of HCC and GC only”.
